The text below walks through data of the supplement of paper PMC10307832.

Common to all, as to experiment: relative viability (nuclei count vs DMSO), 5 days (fraction); higher = more cells survive
Compound in the test “XMD14-99 + Lapatinib”: CN1CCN(CC1)C2=CC(=C(C=C2)NC3=NC(=C(S3)C(=O)C4=C(C=CC=C4Cl)Cl)N)OC [XMD14-99] + CS(=O)(=O)CCNCc1ccc(-c2ccc3ncnc(Nc4ccc(OCc5cccc(F)c5)c(Cl)c4)c3c2)o1 [Lapatinib] (partner 2 µM)
Put shortly:
(§1)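 Lung cancer cell lines were seeded in 1536-well plates and dosed by pin tool the next day, with either a single drug or a fixed anchor-drug dose combined with five library-drug doses (not always all listed) spaced in √10 steps. Five days later, one step fixed the cells and stained their nuclei (final 0.05% Triton X-100, 1% formaldehyde, 1 ug/ml Hoechst), and nuclei were counted on 4× images. Relative viability is the nuclei count in treated wells divided by the count in vehicle wells, and each value is the median of duplicate plates.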

Compound in the test “XMD14-99 + Foretinib”: CN1CCN(CC1)C2=CC(=C(C=C2)NC3=NC(=C(S3)C(=O)C4=C(C=CC=C4Cl)Cl)N)OC [XMD14-99] + COc1cc2c(Oc3ccc(NC(=O)C4(C(=O)Nc5ccc(F)cc5)CC4)cc3F)ccnc2cc1OCCCN1CCOCC1 [Foretinib] (partner 0.25 µM)
Put shortly: as §1

Compound in the test “AZD1208 + OSI-027”: N[C@@H]1CCCN(c2c(/C=C3\SC(=O)NC3=O)cccc2-c2ccccc2)C1 [AZD1208] + COc1cccc2cc(-c3nc([C@H]4CC[C@H](C(=O)O)CC4)n4ncnc(N)c34)[nH]c12 [OSI-027] (partner 0.5 µM)
Put shortly: as §1

Compound in the test “AZD1208 + Olaparib”: N[C@@H]1CCCN(c2c(/C=C3\SC(=O)NC3=O)cccc2-c2ccccc2)C1 [AZD1208] + O=C(c1cc(Cc2n[nH]c(=O)c3ccccc23)ccc1F)N1CCN(C(=O)C2CC2)CC1 [Olaparib] (partner 8 µM)
In short, it runs like this:
as §1

Turning to PC-14, the relative viability turned out to be 0.328 in the test with XMD14-99 + Lapatinib (first compound 0.08 µM); 0.303 with XMD14-99 + Lapatinib (first compound 0.8 µM); 0.262 with XMD14-99 + Lapatinib (first compound 2.53 µM); 0.216 with XMD14-99 + Lapatinib (first compound 8 µM); 0.964 with XMD14-99 + Foretinib (first compound 0.08 µM); 0.969 with XMD14-99 + Foretinib (first compound 0.8 µM). Besides, the relative viability in the test with XMD14-99 + Foretinib (first compound 2.53 µM) stood at 0.864; with XMD14-99 + Foretinib (first compound 8 µM), 0.852; with AZD1208 + OSI-027 (first compound 0.08 µM), 0.838; in the test with AZD1208 + OSI-027 (first compound 0.253 µM), 0.881; with AZD1208 + OSI-027 (first compound 0.8 µM) it was 0.722; in the test with AZD1208 + OSI-027 (first compound 2.53 µM) it was 0.586. For the same cell line, the relative viability is 0.621 with AZD1208 + OSI-027 (first compound 8 µM); 0.381 with AZD1208 + Olaparib (first compound 0.08 µM); 0.248 in the test with AZD1208 + Olaparib (first compound 0.253 µM); 0.27 in the test with AZD1208 + Olaparib (first compound 0.8 µM); 0.365 with AZD1208 + Olaparib (first compound 2.53 µM); 0.257 with AZD1208 + Olaparib (first compound 8 µM).

With RERF-LC-KJ, the relative viability came out at 0.849 with XMD14-99 + Lapatinib (first compound 0.08 µM); 0.837 with XMD14-99 + Lapatinib (first compound 0.8 µM); 0.799 with XMD14-99 + Lapatinib (first compound 2.53 µM); 0.829 with XMD14-99 + Lapatinib (first compound 8 µM); 0.462 in the test with XMD14-99 + Foretinib (first compound 0.08 µM); 0.908 with XMD14-99 + Foretinib (first compound 0.8 µM). Besides, the relative viability with XMD14-99 + Foretinib (first compound 2.53 µM) is 0.867; in the test with XMD14-99 + Foretinib (first compound 8 µM), 0.803; with AZD1208 + OSI-027 (first compound 0.08 µM), 0.511; with AZD1208 + OSI-027 (first compound 0.253 µM) it was 0.558; with AZD1208 + OSI-027 (first compound 0.8 µM) it was 0.512; with AZD1208 + OSI-027 (first compound 2.53 µM), 0.518. Also, the relative viability with AZD1208 + OSI-027 (first compound 8 µM) was found to be 0.41; in the test with AZD1208 + Olaparib (first compound 0.08 µM), 0.826; with AZD1208 + Olaparib (first compound 0.253 µM) it was 0.965; with AZD1208 + Olaparib (first compound 0.8 µM), 0.857; in the test with AZD1208 + Olaparib (first compound 2.53 µM), 0.825; in the test with AZD1208 + Olaparib (first compound 8 µM), 0.673.

On to SK-LU-1, for which the relative viability with XMD14-99 + Lapatinib (first compound 0.08 µM) was found to be 0.969; with XMD14-99 + Lapatinib (first compound 0.8 µM), 0.841; in the test with XMD14-99 + Lapatinib (first compound 2.53 µM), 0.74; in the test with XMD14-99 + Lapatinib (first compound 8 µM), 0.565; with XMD14-99 + Foretinib (first compound 0.08 µM), 0.818; with XMD14-99 + Foretinib (first compound 0.8 µM) it was 0.803. Further, the relative viability in the test with XMD14-99 + Foretinib (first compound 2.53 µM) was found to be 0.758; in the test with XMD14-99 + Foretinib (first compound 8 µM), 0.477; in the test with AZD1208 + OSI-027 (first compound 0.08 µM), 0.283; in the test with AZD1208 + OSI-027 (first compound 0.253 µM), 0.337; in the test with AZD1208 + OSI-027 (first compound 0.8 µM), 0.285; in the test with AZD1208 + OSI-027 (first compound 2.53 µM) it was 0.316. Moreover, the relative viability turned out to be 0.248 with AZD1208 + OSI-027 (first compound 8 µM); 0.446 with AZD1208 + Olaparib (first compound 0.08 µM); 0.419 with AZD1208 + Olaparib (first compound 0.253 µM); 0.367 with AZD1208 + Olaparib (first compound 0.8 µM); 0.448 with AZD1208 + Olaparib (first compound 2.53 µM); 0.436 with AZD1208 + Olaparib (first compound 8 µM).

Turning to SK-MES-1, the relative viability with XMD14-99 + Lapatinib (first compound 0.08 µM) stood at 0.416; with XMD14-99 + Lapatinib (first compound 0.8 µM), 0.46; in the test with XMD14-99 + Lapatinib (first compound 2.53 µM) it was 0.432; with XMD14-99 + Lapatinib (first compound 8 µM) it was 0.403; in the test with XMD14-99 + Foretinib (first compound 0.08 µM) it was 1.01; with XMD14-99 + Foretinib (first compound 0.8 µM) it was 0.927. Further, the relative viability came out at 0.971 with XMD14-99 + Foretinib (first compound 2.53 µM); 0.745 in the test with XMD14-99 + Foretinib (first compound 8 µM); 0.541 with AZD1208 + OSI-027 (first compound 0.08 µM); 0.509 with AZD1208 + OSI-027 (first compound 0.253 µM); 0.492 with AZD1208 + OSI-027 (first compound 0.8 µM); 0.541 in the test with AZD1208 + OSI-027 (first compound 2.53 µM). Also, the relative viability with AZD1208 + OSI-027 (first compound 8 µM) was determined as 0.461; with AZD1208 + Olaparib (first compound 0.08 µM), 0.697; with AZD1208 + Olaparib (first compound 0.253 µM), 0.715; with AZD1208 + Olaparib (first compound 0.8 µM), 0.672; with AZD1208 + Olaparib (first compound 2.53 µM), 0.653; with AZD1208 + Olaparib (first compound 8 µM), 0.577.

On to SW 1573, for which the relative viability was found to be 1.06 with XMD14-99 + Lapatinib (first compound 0.08 µM); 1.17 with XMD14-99 + Lapatinib (first compound 0.8 µM); 1.21 with XMD14-99 + Lapatinib (first compound 2.53 µM); 0.985 with XMD14-99 + Lapatinib (first compound 8 µM); 0.814 with XMD14-99 + Foretinib (first compound 0.08 µM); 0.992 in the test with XMD14-99 + Foretinib (first compound 0.8 µM). For the same cell line, the relative viability with XMD14-99 + Foretinib (first compound 2.53 µM) amounted to 0.861; with XMD14-99 + Foretinib (first compound 8 µM), 0.824; in the test with AZD1208 + OSI-027 (first compound 0.08 µM), 0.397; with AZD1208 + OSI-027 (first compound 0.253 µM), 0.548; in the test with AZD1208 + OSI-027 (first compound 0.8 µM) it was 0.451; with AZD1208 + OSI-027 (first compound 2.53 µM) it was 0.381. The relative viability turned out to be 0.348 with AZD1208 + OSI-027 (first compound 8 µM); 0.417 with AZD1208 + Olaparib (first compound 0.08 µM); 0.499 in the test with AZD1208 + Olaparib (first compound 0.253 µM); 0.336 in the test with AZD1208 + Olaparib (first compound 0.8 µM); 0.445 with AZD1208 + Olaparib (first compound 2.53 µM); 0.406 in the test with AZD1208 + Olaparib (first compound 8 µM).
